Test results taken from ChEMBL document CHEMBL1201862, “PubChem BioAssay data set” (2004).
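48-hour exposure; five concentrations; linearly interpolated endpoints. Here, GI50 denotes the concentration required for 50% inhibition of growth.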 Activity calls are given as the source filed them. No stated cut-off is given here; in the data, active = GI50 up to about 1.1 µM and inactive = higher.

What was measured:
Experiment in all cases: NCI anticancer screen, dose series, 48 h
SK-MEL-5 = test system: SK-MEL-5
BT-549 = test system: BT-549
DU-145 = test system: DU-145
NCI-H23 = test system: NCI-H23
SW-620 = test system: SW-620
MCF7 = test system: MCF7
SF-295 = test system: SF-295
HOP-62 = test system: HOP-62
M14 = test system: M14
PC-3 = test system: PC-3
K562 = test system: K562
UACC-257 = test system: UACC-257
EKVX = test system: EKVX
OVCAR-4 = test system: OVCAR-4
OVCAR-5 = test system: OVCAR-5
OVCAR-8 = test system: OVCAR-8
ACHN = test system: ACHN
SNB-19 = test system: SNB-19
NCI/ADR-RES = test system: NCI/ADR-RES
RXF 393 = test system: RXF 393
SF-539 = test system: SF-539
U-251 = test system: U-251
A549 = test system: A549
IGROV-1 = test system: IGROV-1
HT-29 = test system: HT-29
MDA-MB-231 = test system: MDA-MB-231
HOP-92 = test system: HOP-92
SNB-75 = test system: SNB-75
Hs-578T = test system: Hs-578T
RPMI-8226 = test system: RPMI-8226
NCI-H522 = test system: NCI-H522
786-0 = test system: 786-0
HCT-116 = test system: HCT-116
HL-60 = test system: HL-60
MDA-N = test system: MDA-N
LOX IMVI = test system: LOX IMVI
SK-OV-3 = test system: SK-OV-3
SK-MEL-2 = test system: SK-MEL-2
HCT-15 = test system: HCT-15
NCI-H460 = test system: NCI-H460
SR = test system: SR
MDA-MB-435 = test system: MDA-MB-435
OVCAR-3 = test system: OVCAR-3
T47D = test system: T47D
SK-MEL-28 = test system: SK-MEL-28
MOLT-4 = test system: MOLT-4
UACC-62 = test system: UACC-62
TK-10 = test system: TK-10
COLO 205 = test system: COLO 205
Malme-3M = test system: Malme-3M
SN12C = test system: SN12C
SF-268 = test system: SF-268
KM12 = test system: KM12
CAKI-1 = test system: CAKI-1
HCC 2998 = test system: HCC 2998
UO-31 = test system: UO-31
A498 = test system: A498
CCRF-CEM = test system: CCRF-CEM
NCI-H226 = test system: NCI-H226

Measured: GI50

Cc1ccc(S(=O)(=O)OC2CCN(C)CC2)cc1
inactive: SK-MEL-5 15.6 µM | BT-549 > 100 µM | DU-145 > 100 µM | NCI-H23 33.7 µM | SW-620 20.1 µM | MCF7 47.9 µM | SF-295 > 100 µM | HOP-62 > 100 µM | M14 > 100 µM | PC-3 > 100 µM | K562 19.3 µM | UACC-257 24.2 µM | EKVX > 100 µM | OVCAR-4 > 100 µM | OVCAR-5 > 100 µM | OVCAR-8 > 100 µM | ACHN 32.6 µM | SNB-19 > 100 µM | NCI/ADR-RES > 100 µM | RXF 393 > 100 µM | SF-539 88.7 µM | U-251 > 100 µM | A549 57.8 µM | IGROV-1 > 100 µM | HT-29 > 100 µM | MDA-MB-231 > 100 µM | HOP-92 19.8 µM | SNB-75 42.4 µM | Hs-578T > 100 µM | RPMI-8226 23.2 µM | NCI-H522 19 µM | 786-0 > 100 µM | HCT-116 46.6 µM | HL-60 18 µM | MDA-N > 100 µM | LOX IMVI > 100 µM | SK-OV-3 > 100 µM | SK-MEL-2 > 100 µM | NCI-H460 > 100 µM | SR 20.5 µM | MDA-MB-435 > 100 µM | OVCAR-3 > 100 µM | T47D 23.1 µM | SK-MEL-28 > 100 µM | MOLT-4 18.3 µM | UACC-62 > 100 µM | TK-10 > 100 µM | COLO 205 21.7 µM | Malme-3M 19 µM | SN12C > 100 µM | SF-268 > 100 µM
> 100 µM: HCT-15

CC(=O)Oc1cc(S(=O)(=O)Nc2nc(N)n[nH]2)c(S)cc1Cl
> 100 µM: HCT-15
inactive: SK-MEL-5 > 100 µM | BT-549 > 100 µM | DU-145 > 100 µM | NCI-H23 > 100 µM | SW-620 > 100 µM | MCF7 > 100 µM | SF-295 > 100 µM | HOP-62 > 100 µM | M14 > 100 µM | KM12 > 100 µM | PC-3 > 100 µM | K562 > 100 µM | UACC-257 > 100 µM | EKVX > 100 µM | OVCAR-4 > 100 µM | OVCAR-5 > 100 µM | OVCAR-8 > 100 µM | ACHN > 100 µM | SNB-19 > 100 µM | NCI/ADR-RES > 100 µM | SF-539 > 100 µM | U-251 > 100 µM | A549 > 100 µM | IGROV-1 > 100 µM | HT-29 > 100 µM | CAKI-1 > 100 µM | MDA-MB-231 > 100 µM | HOP-92 > 100 µM | Hs-578T > 100 µM | RPMI-8226 > 100 µM | NCI-H522 > 100 µM | 786-0 > 100 µM | HCT-116 > 100 µM | HL-60 > 100 µM | MDA-N > 100 µM | HCC 2998 > 100 µM | LOX IMVI > 100 µM | SK-MEL-2 > 100 µM | UO-31 > 100 µM | NCI-H460 > 100 µM | SR > 100 µM | MDA-MB-435 > 100 µM | OVCAR-3 > 100 µM | T47D > 100 µM | A498 > 100 µM | SK-MEL-28 > 100 µM | MOLT-4 > 100 µM | UACC-62 > 100 µM | TK-10 > 100 µM | COLO 205 > 100 µM | Malme-3M > 100 µM | SN12C > 100 µM | CCRF-CEM > 100 µM

CCC(C)N1CN(c2ccccc2)C2(CCN(CCCC(=O)c3ccc(F)cc3)CC2)C1=O (stereo unspecified)
inactive: SK-MEL-5 1.19 µM | BT-549 13.1 µM | NCI-H23 3.57 µM | SW-620 3.77 µM | SF-295 4.55 µM | HOP-62 1.87 µM | M14 14.3 µM | PC-3 10.6 µM | K562 9.18 µM | EKVX 10.8 µM | OVCAR-4 3.03 µM | OVCAR-8 > 10 µM | ACHN 1.68 µM | NCI/ADR-RES 83 µM | RXF 393 14.2 µM | SF-539 7.71 µM | U-251 4.47 µM | A549 6.03 µM | IGROV-1 3.02 µM | CAKI-1 2.25 µM | MDA-MB-231 10.8 µM | SNB-75 19.5 µM | Hs-578T 13.7 µM | RPMI-8226 5.52 µM | NCI-H522 7.85 µM | 786-0 > 100 µM | HL-60 4.76 µM | MDA-N 11.7 µM | LOX IMVI 2.74 µM | SK-OV-3 9.29 µM | SK-MEL-2 14.9 µM | UO-31 4.17 µM | SR 5.98 µM | MDA-MB-435 13.9 µM | OVCAR-3 11.9 µM | T47D 1.68 µM | A498 2.82 µM | SK-MEL-28 17.4 µM | MOLT-4 3.92 µM | UACC-62 16.6 µM | TK-10 4.85 µM | Malme-3M 14.7 µM | SN12C 3.88 µM | SF-268 6.7 µM
active: DU-145 0.927 µM | MCF7 0.381 µM | OVCAR-5 0.839 µM | HT-29 0.429 µM | HCT-116 0.697 µM | COLO 205 0.193 µM | CCRF-CEM 0.64 µM
5.33 µM: HCT-15

Cc1cc(C)nc(NS(=O)(=O)c2ccc(Nc3c4ccccc4nc4c(C(=O)NNCCO)cccc34)cc2)n1
inactive: SK-MEL-5 > 100 µM | BT-549 > 100 µM | DU-145 > 100 µM | NCI-H23 > 100 µM | SW-620 > 100 µM | MCF7 89.1 µM | SF-295 > 100 µM | HOP-62 > 100 µM | M14 > 100 µM | KM12 > 100 µM | PC-3 > 100 µM | K562 31 µM | UACC-257 > 100 µM | EKVX > 100 µM | OVCAR-4 > 100 µM | OVCAR-5 > 100 µM | OVCAR-8 > 100 µM | ACHN > 100 µM | SNB-19 > 100 µM | NCI/ADR-RES > 100 µM | U-251 > 100 µM | A549 > 100 µM | IGROV-1 > 100 µM | HT-29 > 100 µM | CAKI-1 > 100 µM | MDA-MB-231 > 100 µM | HOP-92 > 100 µM | Hs-578T > 100 µM | RPMI-8226 15.7 µM | NCI-H522 39.5 µM | 786-0 > 100 µM | HL-60 42 µM | MDA-N > 100 µM | HCC 2998 > 100 µM | LOX IMVI 34.6 µM | SK-OV-3 > 100 µM | SK-MEL-2 58.6 µM | UO-31 > 100 µM | NCI-H460 15.7 µM | SR 25.4 µM | MDA-MB-435 79.3 µM | OVCAR-3 86.9 µM | T47D 5.06 µM | A498 > 100 µM | SK-MEL-28 > 100 µM | MOLT-4 30.9 µM | UACC-62 13.7 µM | TK-10 > 100 µM | COLO 205 > 100 µM | Malme-3M > 100 µM | SN12C > 100 µM | CCRF-CEM 21 µM | SF-268 > 100 µM
> 100 µM: HCT-15

Cc1ccn2c(=O)cc(-c3ccccc3)nc2c1
> 100 µM: HCT-15
inactive: SK-MEL-5 > 100 µM | BT-549 > 100 µM | DU-145 > 100 µM | NCI-H23 > 100 µM | SW-620 > 100 µM | MCF7 > 100 µM | SF-295 > 100 µM | HOP-62 > 100 µM | M14 > 100 µM | KM12 68.9 µM | PC-3 > 100 µM | K562 > 100 µM | UACC-257 > 100 µM | EKVX 44.7 µM | OVCAR-4 > 100 µM | OVCAR-5 > 100 µM | OVCAR-8 > 100 µM | ACHN 71.1 µM | SNB-19 > 100 µM | NCI/ADR-RES 72.3 µM | RXF 393 > 100 µM | SF-539 > 100 µM | U-251 > 100 µM | A549 > 100 µM | IGROV-1 > 100 µM | HT-29 > 100 µM | MDA-MB-231 > 100 µM | HOP-92 74 µM | SNB-75 18.3 µM | Hs-578T > 100 µM | NCI-H226 > 100 µM | RPMI-8226 > 100 µM | NCI-H522 55.2 µM | 786-0 > 100 µM | HCT-116 > 100 µM | HL-60 > 100 µM | MDA-N > 100 µM | HCC 2998 > 100 µM | SK-OV-3 > 100 µM | NCI-H460 > 100 µM | SR > 100 µM | MDA-MB-435 > 10 µM | OVCAR-3 > 100 µM | T47D 49.7 µM | SK-MEL-28 > 100 µM | MOLT-4 > 100 µM | UACC-62 18.7 µM | TK-10 > 100 µM | COLO 205 > 100 µM | Malme-3M > 100 µM | SN12C 93.8 µM | CCRF-CEM > 100 µM | SF-268 > 100 µM
